Numbered stars: 1 amine (or outer) side, 2 acyl side, 3 side chain; on linkers, the order of the positions; unused ones are H or OH. Bridge positions count the residues as written; N and C are the ends. Square brackets hold non-standard residues; d marks the D form. Side chains are listed from the residue outwards. Peptide text beside a SMILES is read from it. * marks the point of attachment. γGlu = O=C(O)[C@H](CCC(=O)[*:2])N[*:1]; Palmitoyl = CCCCCCCCCCCCCCCC(=O)*; Myristoyl = CCCCCCCCCCCCCC(=O)*; Lauroyl = CCCCCCCCCCCC(=O)*; Dab = NCC[C@H](N)C(=O)O
Assay: Plasma stability in human plasma
Type: in vitro ADME
Conditions: human plasma, 37° C.; for remaining at 24 h, 10 μM: 1440 min, read-out: human pl. cpd left at 1440 min
Outline: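 Peptides (1 mM DMSO/H2O stock) were spiked into human or mouse plasma in triplicate and incubated at 37 °C, sampling from 0 to 1440 min. Samples were quenched in formic acid/acetonitrile and analysed by LC/MS MRM. Remaining percent of t=0 was calculated and T1/2 derived by trend fitting.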

| SMILES | remaining at 24 h, 10 μM [%] | half-life at 10 μM (up to 1440 min, read-out: human pl. T1/2) [h] | human pl. T1/2 (up to 1440 min) [h] |
| --- | --- | --- | --- |
| CCCCCCCCCCCCCC(=O)N[C@@H](CCC(=O)NCCCC[C@@H]1NC(=O)[C@H](Cc2ccc(O)cc2)NC(=O)[C@@H]2CSSC[C@H](NC(=O)[C@H](Cc3ccc(O)cc3)NC(=O)[C@H](Cc3c[nH]cn3)NC(=O)[C@H](Cc3ccc(O)cc3)NC(=O)[C@@H]3CCCN3C(=O)[C@H]3CCCN3C(=O)[C@H](CCCCN)NC1=O)C(=O)N[C@@H](CO)C(=O)N[C@@H](C)C(=O)N1CCC[C@@H]1C(=O)N[C@@H](CCN)C(=O)N[C@@H](CCCNC(=N)N)C(=O)N[C@@H](Cc1ccc(O)cc1)C(=O)N2)C(=O)O [Ex. 28] (cyclo(YHYCSA[dP][Dab]RYCYK([γGlu-Myristoyl])K[dP]P); disulfide 4-11) | 80 | 19.1 | – |
| CCCCCCCCCCCCCCCC(=O)NCCCC[C@@H]1NC(=O)[C@H](Cc2ccc(O)cc2)NC(=O)[C@@H]2CSSC[C@H](NC(=O)[C@H](Cc3ccc(O)cc3)NC(=O)[C@H](Cc3c[nH]cn3)NC(=O)[C@H](Cc3ccc(O)cc3)NC(=O)[C@@H]3CCCN3C(=O)[C@H]3CCCN3C(=O)[C@H](CCCCN)NC1=O)C(=O)N[C@@H](CO)C(=O)N[C@@H](C)C(=O)N1CCC[C@@H]1C(=O)N[C@@H](CCN)C(=O)N[C@@H](CCCNC(=N)N)C(=O)N[C@@H](Cc1ccc(O)cc1)C(=O)N2 [Ex. 20] (cyclo(YHYCSA[dP][Dab]RYCYK(Palmitoyl)K[dP]P); disulfide 4-11) | 54 | – | 24 |
| CCCCCCCCCCCC(=O)N[C@@H](CCC(=O)NCCCC[C@@H]1NC(=O)[C@H](Cc2ccc(O)cc2)NC(=O)[C@@H]2CSSC[C@H](NC(=O)[C@H](Cc3ccc(O)cc3)NC(=O)[C@H](Cc3c[nH]cn3)NC(=O)[C@H](Cc3ccc(O)cc3)NC(=O)[C@@H]3CCCN3C(=O)[C@H]3CCCN3C(=O)[C@H](CCCCN)NC1=O)C(=O)N[C@@H](CO)C(=O)N[C@@H](C)C(=O)N1CCC[C@@H]1C(=O)N[C@@H](CCN)C(=O)N[C@@H](CCCNC(=N)N)C(=O)N[C@@H](Cc1ccc(O)cc1)C(=O)N2)C(=O)O [Ex. 25] (cyclo(YHYCSA[dP][Dab]RYCYK([γGlu-Lauroyl])K[dP]P); disulfide 4-11) | 78 | – | 24 |
| CCCCCCCCCCCC(=O)NCCCC[C@@H]1NC(=O)[C@H](Cc2ccc(O)cc2)NC(=O)[C@@H]2CSSC[C@H](NC(=O)[C@H](C)NC(=O)[C@H](Cc3c[nH]cn3)NC(=O)[C@H](Cc3ccc(O)cc3)NC(=O)[C@@H]3CCCN3C(=O)[C@H]3CCCN3C(=O)[C@H](CCCCN)NC1=O)C(=O)N[C@@H](CCCNC(=N)N)C(=O)N[C@@H](C)C(=O)N1CCC[C@@H]1C(=O)N[C@@H](CCN)C(=O)N[C@@H](CCCNC(=N)N)C(=O)N[C@@H](Cc1ccc(O)cc1)C(=O)N2 [Ex. 17] (cyclo(YHACRA[dP][Dab]RYCYK(Lauroyl)K[dP]P); disulfide 4-11) | 65 | – | 24 |
| CCCCCCCCCCCC(=O)N[C@@H](CCC(=O)NCCCC[C@@H]1NC(=O)[C@H](Cc2ccc(O)cc2)NC(=O)[C@@H]2CSSC[C@H](NC(=O)[C@H](C)NC(=O)[C@H](Cc3c[nH]cn3)NC(=O)[C@H](Cc3ccc(O)cc3)NC(=O)[C@@H]3CCCN3C(=O)[C@H]3CCCN3C(=O)[C@H](CCCCN)NC1=O)C(=O)N[C@@H](CCCNC(=N)N)C(=O)N[C@@H](C)C(=O)N1CCC[C@@H]1C(=O)N[C@@H](CCN)C(=O)N[C@@H](CCCNC(=N)N)C(=O)N[C@@H](Cc1ccc(O)cc1)C(=O)N2)C(=O)O [Ex. 26] (cyclo(YHACRA[dP][Dab]RYCYK([γGlu-Lauroyl])K[dP]P); disulfide 4-11) | 82 | – | 24 |
| CCCCCCCCCCCCCCCC(=O)N[C@@H](CCC(=O)NCCCC[C@@H]1NC(=O)[C@H](Cc2ccc(O)cc2)NC(=O)[C@@H]2CSSC[C@H](NC(=O)[C@H](Cc3ccc(O)cc3)NC(=O)[C@H](Cc3c[nH]cn3)NC(=O)[C@H](Cc3ccc(O)cc3)NC(=O)[C@@H]3CCCN3C(=O)[C@H]3CCCN3C(=O)[C@H](CCCCN)NC1=O)C(=O)N[C@@H](CO)C(=O)N[C@@H](C)C(=O)N1CCC[C@@H]1C(=O)N[C@@H](CCN)C(=O)N[C@@H](CCCNC(=N)N)C(=O)N[C@@H](Cc1ccc(O)cc1)C(=O)N2)C(=O)O [Ex. 29] (cyclo(YHYCSA[dP][Dab]RYCYK([γGlu-Palmitoyl])K[dP]P); disulfide 4-11) | 74 | – | 24 |

— patent US8716242B2, “β-hairpin peptidomimetics” (priority 2009, dated 2014)
